The target in test [1] is T1, TIP60-KAT5 (Homo sapiens, UniProt Q92993).
T1 construct: encoding amino acid residues 2 to 461 (Uniprot Q92993-2) of human KAT5 isoform; made in house; host or cells: E. coli BL21 DE3
Description: Revised Acetyltransferase Biochemical Assay, KAT5. The conditions noted are these: 10 nM KAT5, 1 μM AcCoA, 100 nM histone H4, 90 min.

Test [2] concerns the target T2, MOF-KAT8 (Homo sapiens, UniProt Q9H7Z6).
T2 sequence (Q9H7Z6 177-447): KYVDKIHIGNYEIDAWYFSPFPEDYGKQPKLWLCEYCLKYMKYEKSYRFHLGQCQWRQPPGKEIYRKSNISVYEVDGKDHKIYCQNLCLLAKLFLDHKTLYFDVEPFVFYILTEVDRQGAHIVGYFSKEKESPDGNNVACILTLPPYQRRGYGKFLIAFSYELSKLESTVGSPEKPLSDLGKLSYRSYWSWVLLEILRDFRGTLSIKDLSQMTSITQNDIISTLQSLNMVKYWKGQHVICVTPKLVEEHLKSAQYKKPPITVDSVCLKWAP
The test is described as follows: Revised Acetyltransferase Biochemical Assay, KAT8.

Test [3] deals with T3, MOZ-KAT6A (Homo sapiens, UniProt Q92794, A567V).
T3 construct: encoding amino acid residues 507 to 778 (Uniprot Q92794-1) of human KAT6A; made in house; host or cells: E. coli BL21 DE3
Description: Revised Acetyltransferase Biochemical Assay, KAT6A. The conditions noted are these: Table 8 (MOZ-KAT6A), 1 μM Acetyl coenzyme A.

Test [4] addresses T3, MOZ-KAT6A. The test is described as follows: Acetyltransferase biochemical assay (AlphaScreen), KAT6A. To be noted: Table 2 (MOZ-KAT6A); 10 μM Acetyl coenzyme A, histone H3.1, 5 nM enzyme. Background: Alpha assays give light when donor and acceptor beads are brought close together.
The target in test [5] is T1, TIP60-KAT5. Description: Acetyltransferase biochemical assay (AlphaScreen), KAT5. To be noted: Table 1 (TIP60-KAT5); 0.4 μM Acetyl coenzyme A, histone H4, 10 nM enzyme.
Test [6] has as its target T4, HBO-KAT7 (Homo sapiens, UniProt O95251).
T4 construct: encoding amino acid residues 325 to 611 (Uniprot 095251-1) of human KAT7; made in house; host or cells: E. coli BL21 DE3 RIL
Description: Revised Acetyltransferase Biochemical Assay, KAT7. The conditions noted are these: Table 9 (HBO-KAT7), 1 μM Acetyl coenzyme A.

Test [7] concerns the target T2, MOF-KAT8. The test is described as follows: Acetyltransferase biochemical assay (AlphaScreen), KAT8. The conditions noted are these: Table 4 (MOF-KAT8); 0.4 μM Acetyl coenzyme A, histone H4, 20 nM enzyme.
In test [8] the target is T4, HBO-KAT7. Description: Acetyltransferase biochemical assay (AlphaScreen), KAT7. The conditions noted are these: Table 3 (HBO-KAT7); 0.4 μM Acetyl coenzyme A, histone H3.1, 40 nM enzyme.

T4 sequence (O95251 with tags, fused parts or gaps): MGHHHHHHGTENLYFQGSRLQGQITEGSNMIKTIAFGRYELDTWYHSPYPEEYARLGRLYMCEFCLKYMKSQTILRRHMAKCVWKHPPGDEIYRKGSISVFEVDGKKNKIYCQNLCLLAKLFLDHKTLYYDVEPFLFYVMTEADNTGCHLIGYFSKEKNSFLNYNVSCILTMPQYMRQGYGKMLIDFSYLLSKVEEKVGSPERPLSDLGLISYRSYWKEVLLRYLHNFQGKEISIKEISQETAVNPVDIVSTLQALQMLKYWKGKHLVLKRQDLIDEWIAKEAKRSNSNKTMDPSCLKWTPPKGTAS
T3 sequence (Q92794 507-778 A567V limits assumed): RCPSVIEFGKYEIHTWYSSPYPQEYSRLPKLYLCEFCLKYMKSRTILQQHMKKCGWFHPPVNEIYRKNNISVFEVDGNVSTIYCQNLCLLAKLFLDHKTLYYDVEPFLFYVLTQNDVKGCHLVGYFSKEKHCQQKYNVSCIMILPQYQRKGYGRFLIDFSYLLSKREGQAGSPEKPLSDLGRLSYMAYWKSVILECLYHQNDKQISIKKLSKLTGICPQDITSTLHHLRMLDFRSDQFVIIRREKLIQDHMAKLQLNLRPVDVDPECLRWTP
T1 sequence (Q92993 2-461 isoform Q92993-2): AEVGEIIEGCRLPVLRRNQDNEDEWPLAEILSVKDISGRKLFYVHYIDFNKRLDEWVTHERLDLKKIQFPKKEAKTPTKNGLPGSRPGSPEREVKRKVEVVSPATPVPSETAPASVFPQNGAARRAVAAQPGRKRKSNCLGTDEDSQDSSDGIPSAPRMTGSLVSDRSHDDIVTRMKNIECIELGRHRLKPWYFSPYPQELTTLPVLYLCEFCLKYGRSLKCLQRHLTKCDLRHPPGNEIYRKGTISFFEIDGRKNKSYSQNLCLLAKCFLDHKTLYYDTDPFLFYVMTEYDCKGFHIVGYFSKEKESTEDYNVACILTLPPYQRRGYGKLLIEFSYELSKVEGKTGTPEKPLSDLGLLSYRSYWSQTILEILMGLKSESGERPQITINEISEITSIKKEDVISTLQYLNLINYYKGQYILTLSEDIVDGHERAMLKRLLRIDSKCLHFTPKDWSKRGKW

As to `O=C(NCC(CO)c1ccccc1)C1=Nc2ccccc2S(=O)(=O)N1` (centres unmarked) [Example 2, N-(3-Hydroxy-2-phenylpropyl)-2H-benzo[e][1,2,4]thiadiazine-3-carboxamide 1,1-dioxide], the concentration for half-maximal inhibition (IC50) is 60.7 µM at TIP60-KAT5 [1]; more than 125 µM against MOF-KAT8 [2]; 5.14 µM against MOZ-KAT6A [3]; 38.1 µM on MOZ-KAT6A [4]; more than 125 µM against TIP60-KAT5 [5]; 28 µM on HBO-KAT7 [6].
With `O=C(NCC(CCO)c1ccccc1)C1=Nc2ccccc2S(=O)(=O)N1` (centres unmarked) [Example 3, N-(4-Hydroxy-2-phenylbutyl)-2H-benzo[e][1,2,4]thiadiazine-3-carboxamide 1,1-dioxide], the IC50 against TIP60-KAT5 [1] turned out to be 99.6 µM; against MOF-KAT8 [2], 12.2 µM; against MOZ-KAT6A [3] it was 4.95 µM; on MOZ-KAT6A [4], 7.66 µM; on TIP60-KAT5 [5], 96.5 µM; at HBO-KAT7 [6], 49.9 µM.
As to `O=C(NCC(c1ccccc1)c1ncco1)C1=Nc2ccc(OC(F)(F)F)cc2S(=O)(=O)N1` (centres unmarked) [Example 5, N-(2-(Oxazol-2-yl)-2-phenylethyl)-7-(trifluoromethoxy)-2H-benzo[e][1,2,4]thiadiazine-3-carboxamide 1,1-dioxide], the IC50 was determined as 0.493 µM against TIP60-KAT5 [1]; 27.7 µM against MOF-KAT8 [7]; 0.069 µM against MOZ-KAT6A [3]; 0.667 µM on MOZ-KAT6A [4]; 2.04 µM against HBO-KAT7 [8]; 1.17 µM at TIP60-KAT5 [5].
For the molecule `COc1ccc2c(c1)S(=O)(=O)NC(C(=O)NCC(c1ccccc1)c1ccccc1)=N2` [Example 19, N-(2,2-diphenylethyl)-7-methoxy-2H-benzo[e][1,2,4]thiadiazine-3-carboxamide 1,1-dioxide], the IC50 against TIP60-KAT5 [1] was 14.6 µM; against MOF-KAT8 [2] it was more than 125 µM; on MOZ-KAT6A [3] it was 0.27 µM; at MOZ-KAT6A [4], 1.35 µM; against TIP60-KAT5 [5], 33.2 µM; on HBO-KAT7 [6] it was 1 µM.
For the molecule `COC(=O)c1ccc2c(c1)S(=O)(=O)NC(C(=O)NCC(c1ccccc1)c1ccccc1)=N2` [Example 20], the half-inhibitory concentration (IC50) amounted to 13.8 µM against TIP60-KAT5 [1]; 62.8 µM on MOF-KAT8 [2]; 0.49 µM against MOZ-KAT6A [3]; 6.05 µM against MOZ-KAT6A [4]; 29.5 µM against TIP60-KAT5 [5]; 1.25 µM on HBO-KAT7 [6].
For the molecule `O=C(NCC(c1ccccc1)c1ncco1)C1=Nc2ccc(C(=O)O)cc2S(=O)(=O)N1` (centres unmarked) [Example 24, 3-((2-(Oxazol-2-yl)-2-phenylethyl)carbamoyl)-2H-benzo[e][1,2,4]thiadiazine-7-carboxylic Acid 1,1-dioxide], the IC50 amounted to 5.4 µM on TIP60-KAT5 [1]; 69.6 µM on MOF-KAT8 [7]; 0.11 µM against MOZ-KAT6A [3]; 0.127 µM against MOZ-KAT6A [4]; 0.141 µM against HBO-KAT7 [8]; 7.16 µM at TIP60-KAT5 [5]. The molecule also showed an IC50 on HBO-KAT7 [6] of 0.583 µM.
With `CC(=O)c1ccc2c(c1)S(=O)(=O)NC(C(=O)NCC(c1ccccc1)c1ncco1)=N2` (centres unmarked) [Example 43, 7-acetyl-N-(2-(oxazol-2-yl)-2-phenylethyl)-2H-benzo[e][1,2,4]thiadiazine-3-carboxamide 1,1-dioxide], the IC50 was 0.266 µM on TIP60-KAT5 [1]; 71.6 µM at MOF-KAT8 [2]; 0.014 µM against MOZ-KAT6A [3]; 0.243 µM against MOZ-KAT6A [4]; 1.99 µM at HBO-KAT7 [8]; 2.39 µM against TIP60-KAT5 [5]. The same molecule registered an IC50 against HBO-KAT7 [6] of 0.086 µM.
For the molecule `O=C(NCC(c1ccccc1)c1ccccc1)C1=Nc2ccccc2S(=O)(=O)N1` [Example 68], the IC50 stood at 7.21 µM against TIP60-KAT5 [1]; 16.5 µM at MOF-KAT8 [2]; 0.108 µM against MOZ-KAT6A [3]; 3.81 µM on MOZ-KAT6A [4]; 0.462 µM at HBO-KAT7 [8]; 14.5 µM on TIP60-KAT5 [5]. This molecule also had a half-maximal inhibitory concentration (IC50) at HBO-KAT7 [6] of 0.601 µM.
`O=C(NCC(c1ccccc1)n1cccn1)C1=Nc2ccccc2S(=O)(=O)N1` (centres unmarked) [Example 75]: the IC50 was 14.1 µM against TIP60-KAT5 [1]; more than 125 µM at MOF-KAT8 [2]; 0.308 µM against MOZ-KAT6A [3]; 1.72 µM on MOZ-KAT6A [4]; 56.6 µM against TIP60-KAT5 [5]; 1.15 µM against HBO-KAT7 [6].
Take `O=C(NCCc1ccccc1)C1=Nc2ccc(Br)cc2S(=O)(=O)N1` [Example 78]: the IC50 against TIP60-KAT5 [1] was 4.54 µM; at MOF-KAT8 [2], more than 125 µM; against MOZ-KAT6A [3] it was 0.203 µM; on MOZ-KAT6A [4] it was 3.74 µM; against HBO-KAT7 [8] it was 4.56 µM; against TIP60-KAT5 [5], 16.7 µM. The molecule also displayed an IC50 against HBO-KAT7 [6] of 3.53 µM.
Consider `O=C(NCC(O)c1ccccc1)C1=Nc2ccc(Br)cc2S(=O)(=O)N1` (centres unmarked) [Example 82], for which the IC50 against MOF-KAT8 [7] was more than 125 µM; on MOZ-KAT6A [4], 9.19 µM; against TIP60-KAT5 [5], 7.82 µM.
Consider `O=C(NCC(O)c1ccccc1)C1=Nc2ccc(I)cc2S(=O)(=O)N1` (centres unmarked) [Example 87], for which the IC50 against MOF-KAT8 [7] came out at 114 µM; against MOZ-KAT6A [4], 8.93 µM; on HBO-KAT7 [8], 12 µM; against TIP60-KAT5 [5], 4.47 µM.
`COC(CNC(=O)C1=Nc2ccc(I)cc2S(=O)(=O)N1)c1ccccc1` (centres unmarked) [Example 88]: the IC50 stood at 47 µM on MOF-KAT8 [7], 0.659 µM on HBO-KAT7 [8] and 1.19 µM at TIP60-KAT5 [5].
On to `O=C(NCC(c1ccccc1)c1ncco1)C1=Nc2cccnc2S(=O)(=O)N1` (centres unmarked) [Example 96], for which the IC50 on TIP60-KAT5 [1] was 13.3 µM; against MOF-KAT8 [2], more than 125 µM; on MOZ-KAT6A [3], 0.149 µM; against MOZ-KAT6A [4], 1.17 µM; at HBO-KAT7 [8], 3.17 µM; against TIP60-KAT5 [5], 94.7 µM. Half-maximal inhibition against HBO-KAT7 [6] (IC50) was put at 1.11 µM.
For `O=C(NCCc1ccccc1OC(F)(F)F)C1=Nc2ccc(Br)cc2S(=O)(=O)N1` [Example 114], the IC50 at MOF-KAT8 [7] was more than 125 µM; against MOZ-KAT6A [4] it was 0.861 µM; against HBO-KAT7 [8] it was 0.529 µM; against TIP60-KAT5 [5], 0.954 µM.
With `O=C(NCCc1ccccc1O)C1=Nc2ccc(Br)cc2S(=O)(=O)N1` [Example 116], the IC50 came to 56.7 µM at MOF-KAT8 [7], 2.26 µM against MOZ-KAT6A [4] and 4.44 µM against TIP60-KAT5 [5].
Regarding `O=C(NCC(c1ccccc1)c1ncco1)C1=Nc2ccc(-c3nccs3)cc2S(=O)(=O)N1` (centres unmarked) [Example 134], the IC50 against TIP60-KAT5 [1] worked out at 0.648 µM; against MOF-KAT8 [2], 15.7 µM; at MOZ-KAT6A [3], 0.024 µM; against MOZ-KAT6A [4], 0.149 µM; at HBO-KAT7 [8] it was 3.32 µM; against TIP60-KAT5 [5] it was 2.17 µM. For the same molecule, the IC50 against HBO-KAT7 [6] was 0.72 µM.
For the molecule `CS(=O)(=O)Nc1ccc2c(c1)S(=O)(=O)NC(C(=O)NCC(c1ccccc1)c1ncco1)=N2` (centres unmarked) [Example 153, 7-(Methylsulfonamido)-N-(2-(oxazol-2-yl)-2-phenylethyl)-2H-benzo[e][1,2,4]thiadiazine-3-carboxamide 1,1-dioxide], the half-inhibitory concentration (IC50) on TIP60-KAT5 [1] was determined as 3.37 µM; against MOF-KAT8 [2], 20.1 µM; against MOZ-KAT6A [3], 0.054 µM; on HBO-KAT7 [8] it was 3.41 µM; at TIP60-KAT5 [5], 38.7 µM; against HBO-KAT7 [6], 0.672 µM.
`O=C(NCC(c1ncco1)c1ccccc1I)C1=Nc2ccccc2S(=O)(=O)N1` (centres unmarked) [Example 174, N-(2-(2-iodophenyl)-2-(oxazol-2-yl)ethyl)-2H-benzo[e][1,2,4]thiadiazine-3-carboxamide 1,1-dioxide]: the concentration for half-maximal inhibition (IC50) is 15.3 µM on TIP60-KAT5 [1]; more than 125 µM on MOF-KAT8 [7]; 0.573 µM at MOZ-KAT6A [3]; 7.49 µM against HBO-KAT7 [8]; 4.15 µM against HBO-KAT7 [6].
Turning to `COC(=O)NC(CNC(=O)C1=Nc2ccccc2S(=O)(=O)N1)C1CCCCC1` (centres unmarked) [Example 243, methyl (1-cyclohexyl-2-(1,1-dioxido-2H-benzo[e][1,2,4]thiadiazine-3-carboxamido)ethyl)carbamate], the IC50 against TIP60-KAT5 [1] is 39.9 µM; on MOF-KAT8 [7], 82.5 µM; at MOZ-KAT6A [3], 12.3 µM; at HBO-KAT7 [6], 77.3 µM.

Broadly, the IC50 is the point on the concentration scale where inhibition reaches its midpoint. A high value points to lower potency.
